The values below are quoted from earlier work in patent publication US20180110939A1, “METHOD, SYSTEM AND APPARATUS FOR CONTROLLED DELIVERY OF OPIOID AND OTHER MEDICATIONS” (Somniferum Labs LLC, priority 2016, published 2018).

The conditions of series [1]: converted via the liver.
For series [2] the following is noted: for share of the total area under the concentration-time curve of morphine and its principle metabolites: following intravenous (IV) morphine administration in humans.
The conditions of series [3]: in vivo.
For series [4] the following is noted: in vivo. The source holds these as a separate data set.

The structures appear in SMILES notation.

For `CN1CC[C@]23c4c5ccc(O[C@@H]6O[C@H](C(=O)O)[C@@H](O)[C@H](O)[C@H]6O)c4O[C@H]2[C@@H](O)C=C[C@H]3[C@H]1C5` [M-3-G, morphine-3-glucuronide, reference compound], the “amount generated relative to M-6-G from a given amount of morphine” value in series [1] is listed as 5 times. Besides, the “share of the total area under the concentration-time curve of morphine and its principle metabolites” value in series [2] is “approximately 75%”.
As to `CN1CC[C@]23c4c5ccc(O)c4O[C@H]2[C@@H](O[C@@H]2O[C@H](C(=O)O)[C@@H](O)[C@H](O)[C@H]2O)C=C[C@H]3[C@H]1C5` [M-6-G, morphine-6-glucuronide], the plasma protein binding result is “low”. Also, the “plasma concentrations higher than morphine” value in series [3] is recorded as “approximately 4 fold”. In addition, in series [2] (following IV administration, h.p.l.c. method), the “time from which M-6-G was present in higher concentrations than morphine” value is not below 1 h. Also, the “share of the total area under the concentration-time curve of morphine and its principle metabolites” value in series [2] was 15%. For the same molecule, the “LD50 (lethal dose)” value in series [4] is reported as “no LD50”.
